The record followed here is patent US20240360134A1, “PYRAZOLOPYRIMIDINES AND THEIR USES AS PDGFR INHIBITORS” (priority 2021, published 2024).

The term IC50 denotes the point on the concentration scale where inhibition reaches its midpoint.

PDGFRβ, sequence (Q05030 whole entry, looked up): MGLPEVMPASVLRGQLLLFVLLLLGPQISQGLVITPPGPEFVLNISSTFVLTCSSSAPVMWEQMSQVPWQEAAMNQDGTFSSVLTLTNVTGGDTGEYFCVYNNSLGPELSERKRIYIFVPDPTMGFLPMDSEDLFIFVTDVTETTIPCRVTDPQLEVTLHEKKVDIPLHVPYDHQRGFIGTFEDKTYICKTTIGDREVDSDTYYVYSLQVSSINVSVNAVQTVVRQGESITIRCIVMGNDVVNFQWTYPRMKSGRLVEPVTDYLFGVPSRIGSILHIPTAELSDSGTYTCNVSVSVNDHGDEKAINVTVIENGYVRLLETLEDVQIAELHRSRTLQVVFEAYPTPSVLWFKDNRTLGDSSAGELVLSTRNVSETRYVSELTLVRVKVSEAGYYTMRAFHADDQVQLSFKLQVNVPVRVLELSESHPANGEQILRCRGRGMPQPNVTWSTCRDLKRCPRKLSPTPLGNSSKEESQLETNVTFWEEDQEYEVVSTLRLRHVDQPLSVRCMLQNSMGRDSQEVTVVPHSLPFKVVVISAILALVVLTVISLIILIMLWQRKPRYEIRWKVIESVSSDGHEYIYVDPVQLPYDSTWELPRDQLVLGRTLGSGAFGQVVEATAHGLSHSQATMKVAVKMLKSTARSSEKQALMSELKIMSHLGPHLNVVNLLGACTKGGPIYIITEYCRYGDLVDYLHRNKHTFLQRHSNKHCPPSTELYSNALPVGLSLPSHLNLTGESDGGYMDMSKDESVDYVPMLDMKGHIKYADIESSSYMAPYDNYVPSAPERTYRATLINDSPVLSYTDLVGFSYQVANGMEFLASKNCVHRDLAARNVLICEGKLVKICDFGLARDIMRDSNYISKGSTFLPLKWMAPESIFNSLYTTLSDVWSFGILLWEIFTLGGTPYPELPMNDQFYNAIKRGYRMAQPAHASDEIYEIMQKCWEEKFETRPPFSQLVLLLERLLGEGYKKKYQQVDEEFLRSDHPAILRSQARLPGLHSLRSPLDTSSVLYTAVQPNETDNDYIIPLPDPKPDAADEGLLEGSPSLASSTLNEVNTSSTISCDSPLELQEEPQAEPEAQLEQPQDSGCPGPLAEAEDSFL

In one assay the target is VEGFR2, unphosphorylated (Homo sapiens (Human), UniProt P35968). As to the kind of experiment: VEGFR ADP GLO assay. The assay is classed as biochemical. The following applies: 5 nM VEGFR2, 1.2 mM ATP, 1 mg/mL Srctide, 180 min. How it is done: Assay buffer stock contains 50 mM HEPES pH7.5, 10 mM MgCl2, 0.01% Brij-35, and 1 mM EGTA.
VEGFR2, unphosphorylated, sequence (P35968 whole entry, looked up): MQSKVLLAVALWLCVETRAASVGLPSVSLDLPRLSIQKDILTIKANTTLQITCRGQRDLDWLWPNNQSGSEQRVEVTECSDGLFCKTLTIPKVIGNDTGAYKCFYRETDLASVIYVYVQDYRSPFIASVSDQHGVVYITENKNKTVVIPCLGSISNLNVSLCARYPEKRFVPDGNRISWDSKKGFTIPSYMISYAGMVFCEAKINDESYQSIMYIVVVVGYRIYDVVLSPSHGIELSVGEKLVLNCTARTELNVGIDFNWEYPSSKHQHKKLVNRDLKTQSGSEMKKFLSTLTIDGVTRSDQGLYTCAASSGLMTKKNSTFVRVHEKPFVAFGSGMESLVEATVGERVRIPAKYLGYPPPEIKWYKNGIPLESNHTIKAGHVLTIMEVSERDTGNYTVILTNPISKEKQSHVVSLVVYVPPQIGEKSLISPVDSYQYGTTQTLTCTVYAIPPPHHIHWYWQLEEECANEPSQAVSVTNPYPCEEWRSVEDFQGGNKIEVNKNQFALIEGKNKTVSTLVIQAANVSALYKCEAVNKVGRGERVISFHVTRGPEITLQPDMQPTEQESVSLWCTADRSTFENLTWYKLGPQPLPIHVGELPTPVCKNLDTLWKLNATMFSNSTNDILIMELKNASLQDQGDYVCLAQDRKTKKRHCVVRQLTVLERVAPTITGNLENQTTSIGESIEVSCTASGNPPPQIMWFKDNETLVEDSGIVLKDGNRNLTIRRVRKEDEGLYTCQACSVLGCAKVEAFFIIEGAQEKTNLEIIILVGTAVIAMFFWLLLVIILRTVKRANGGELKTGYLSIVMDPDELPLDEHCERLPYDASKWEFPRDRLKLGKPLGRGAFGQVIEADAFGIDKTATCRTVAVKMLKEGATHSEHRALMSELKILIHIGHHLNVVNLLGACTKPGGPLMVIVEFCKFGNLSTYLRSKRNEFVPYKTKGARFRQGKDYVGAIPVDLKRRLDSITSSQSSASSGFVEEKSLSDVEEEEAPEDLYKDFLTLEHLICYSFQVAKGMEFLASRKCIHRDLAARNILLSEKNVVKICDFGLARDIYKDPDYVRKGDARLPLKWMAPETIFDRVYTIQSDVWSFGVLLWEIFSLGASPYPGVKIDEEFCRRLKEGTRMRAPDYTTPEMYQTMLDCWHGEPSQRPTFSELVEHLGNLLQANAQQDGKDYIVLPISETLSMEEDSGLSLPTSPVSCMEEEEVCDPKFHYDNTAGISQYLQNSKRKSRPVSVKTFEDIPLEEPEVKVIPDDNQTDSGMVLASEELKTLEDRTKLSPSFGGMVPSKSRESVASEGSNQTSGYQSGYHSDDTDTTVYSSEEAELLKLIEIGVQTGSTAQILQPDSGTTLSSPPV
Unphosphorylated VEGFR2. 52.6 μM in 50 mM Tris-HCl, pH 8.0, 50 mM NaCl, 5% Glycerol, 0.5 mM TCEP. Store at −80° C. in aliquots.
10 mg/mL srctide solution, prepared in Assay buffer (Assay buffer stock with 2 mM DTT, 0.1% Pluronic F-127, and 0.1 mg/mL ovalbumin). Sonicate 10 mg/ml Srctide solution for 10 minutes and then vacuum filter.
Assay buffer. Add DTT to 2 mM, Pluronic F-127 to 0.1% and ovalbumin to 0.1 mg/mL to Assay buffer stock.
2× kinase solution. Make a working solution of 10 nM unphosphorylated VEGFR2 in Assay buffer. Vacuum filter 2× kinase solution prior to running assay. Keep on ice until use.
2× substrate/ATP solution. Make a working solution of 2 mg/mL srctide and 2.4 mM ATP in Assay buffer. Keep on ice until use.
Step 1. Dispensing inhibitors/controls: Using Echo, dispense 10 nL/well compound serial dilutions in DMSO to columns 1-22 (in 384-well plates) or columns 1-44 (in 1536-well plates). Dilution series=11 pt, 3-fold dilutions. The top compound concentration in the source plate is 4 mM. The top compound concentration in the assay plate is 10 uM. Using Echo, dispense 10 nl/well DMSO to column 23 (in 384-well plates) or columns 45-47 (in 1536-well plates). These wells will serve as negative control wells Using Echo, dispense 10 nl/well 400 uM TAK-593 in DMSO to column 24 (in 384-well plates) or column 48 (in 1536-well plates). The final concentration of TAK-593 in the assay should be 1 uM. These wells will serve as positive control wells.
Step 2. Pre-incubation of inhibitors with kinase: Add 2 μL/well 2× kinase solution. Centrifuge at 1000 rpm for 1 min. Incubate at room temperature for 30 min.
Step 3. Kinase cascade reaction: Add 2 μL/well 2× substrate/ATP solution to initiate kinase reactions. Centrifuge at 1000 rpm for 1 min. Incubate at room temperature for 180 min.
Final concentrations of components in the assay:
Step 4. Quench: Add 2 uL/well ADP Glo Reagent+0.05% CHAPS. Centrifuge at 1000 rpm for 1 min; Incubate at room temperature for one hour.
Step 5. Detection: Add 2 uL/well Kinase Detection Reagent+0.05% CHAPS. Centrifuge at 1000 rpm for 1 min; Incubate at room temperature for 1 hour; Read Luminescence on a plate reader.
% Inhibition: % Inhibition=(NC−sample)/(NC−PC)*100 where NC is the mean of negative control (reactions without inhibitor), and PC is the mean of positive control (1 μM TAK-593).
IC50 values are determined from a 4-parameter fit, using the following equation: Y=Bottom+(Top−Bottom)/(1+10^(Log IC50-X)*Hill Slope), where X=log10 of the compound concentration; top can be defined by PC; bottom defined by NC.
`Cc1ncc(C(=O)NCCN2CC[C@H](C)C2)cc1Nc1nn(C)c2nc(Nc3cncnc3)ncc12` [Example 12, (S)-6-methyl-5-((1-methyl-6-(pyrimidin-5-ylamino)-1H-pyrazolo[3,4-d]pyrimidin-3-yl)amino)-N-(2-(3-methylpyrrolidin-1-yl)ethyl)nicotinamide] had an IC50 above 7500 nM.
On the same count and under the same terms, the value for `Cc1ncc(C(=O)NCCN2CCCC23COC3)cc1Nc1nn(C)c2nc(Nc3cnn(C)c3)ncc12` [Example 18, N-(2-(2-oxa-5-azaspiro[3.4]octan-5-yl)ethyl)-6-methyl-5-((1-methyl-6-((1-methyl-1H-pyrazol-4-yl)amino)-1H-pyrazolo[3,4-d]pyrimidin-3-yl)amino)nicotinamide] was above 7500 nM; that for `Cc1ncc(C(=O)NCCN2CCC3(CCO3)CC2)cc1Nc1nn(C)c2nc(Nc3cnn(C)c3)ncc12` [Example 19, N-(2-(1-oxa-7-azaspiro[3.5]nonan-7-yl)ethyl)-6-methyl-5-((1-methyl-6-((1-methyl-1H-pyrazol-4-yl)amino)-1H-pyrazolo[3,4-d]pyrimidin-3-yl)amino)nicotinamide] was above 7500 nM; that for `Cc1ncc(C(=O)NCCN2CCCC2(C)C)cc1Nc1nn(C)c2nc(Nc3ccn(C)n3)ncc12` [Example 34, N-(2-(2,2-dimethylpyrrolidin-1-yl)ethyl)-6-methyl-5-((1-methyl-6-((1-methyl-1H-pyrazol-3-yl)amino)-1H-pyrazolo[3,4-d]pyrimidin-3-yl)amino)nicotinamide] was above 7500 nM.
On the same count and under the same terms, the same measure for `Cc1ncc(C(=O)NCCN2CCCC2(C)C)cc1Nc1nn(C)c2nc(Nc3cnn(C)c3)ncc12` [Example 39, N-(2-(2,2-dimethylpyrrolidin-1-yl)ethyl)-6-methyl-5-((1-methyl-6-((1-methyl-1H-pyrazol-4-yl)amino)-1H-pyrazolo[3,4-d]pyrimidin-3-yl)amino)nicotinamide]: above 7500 nM.

Another assay addresses PDGFRβ (Rattus norvegicus (Rat), UniProt Q05030). In words: PDGFRβ Cellular Assay (PDGFRb P-Y751 HTRF, PDGF-BB stimulated A10 cells). The assay is classed as cell-based.
Details: not given
How it is done: Cell Culture and Preparation: Cells are cultured according to ATCC procedure (5) with the addition of the antibiotic penicillin-streptomycin. If working from frozen, cells should be thawed according to ATCC procedure. Depending on the cell density of frozen vial, cells will need time to recover from thaw. An 80% confluent T75 flask should be enough for one 384 well plate.
Stock Solutions: Rat PDGFBB. A 100 ug/mL stock is prepared by reconstituting 50 ug in 500 μL of 4 mM HCl and 0.1% BSA. It can be stored for a month at 4° C., or aliquoted out and frozen in the −20/−80° C. to avoid multiple free-thaw cycles.
1× Cisbio cell lysis buffer. The cell lysis buffer is diluted 4-fold with molecular grade water. The blocking agent is then diluted 25-fold in the diluted lysis buffer.
Antibody solutions. Equal amounts d2 and cryptate antibody are diluted 20-fold in detection buffer.
Rat PDGFBB. A working stock of 100 ng/mL is created from the stock solution in 10% FBS culture media.
Step 1: Plating Cells: Media from the A10 cell flask is aspirated. The cells are rinsed with PBS and then trypsinized to disperse the cell layer. The cells are then pelleted are resuspended to 1.25e5 cells/mL. […] Plates are covered and placed in the incubator (37° C. 5% CO2) overnight to allow cells to adhere.
Step 2: Compound Dispense: Approximately 18 hours after plating, dispense 40 nL compound onto cells using Echo. […] The plate is returned to the incubator for 3 hours.
After 10 minutes the media is removed by flicking the plate.
Step 4: Cell lysis and antibody addition: 20 uL lysis buffer per well is added to the plate via Tempest. 5 uL antibody solution is added per well via the Tempest. The plate is placed on the shaker at 230 rpm for 1 hour at room temperature.
Step 5: Detection: The plate is read using the HTRF module on the BMG Pherastar. Data is analyzed using Genedata Screener.
IC50 values are determined from a 4-parameter fit, using the following equation: Y=Bottom+(Top−Bottom)/(1+10((Log IC50−X)*Hill slope)), where X=log10 of the compound concentration; top can be defined by PC; bottom defined by NC.
For orientation: In TR-FRET formats the signal depends on donor and acceptor labels being close together.
`Cc1ncc(C(=O)NCCN2CC[C@H](C)C2)cc1Nc1nn(C)c2nc(Nc3cncnc3)ncc12` [Example 12, (S)-6-methyl-5-((1-methyl-6-(pyrimidin-5-ylamino)-1H-pyrazolo[3,4-d]pyrimidin-3-yl)amino)-N-(2-(3-methylpyrrolidin-1-yl)ethyl)nicotinamide] displayed an IC50 of 110 nM.
Turning to `Cc1ncc(C(=O)NCCN2CCCC23COC3)cc1Nc1nn(C)c2nc(Nc3cnn(C)c3)ncc12` [Example 18, N-(2-(2-oxa-5-azaspiro[3.4]octan-5-yl)ethyl)-6-methyl-5-((1-methyl-6-((1-methyl-1H-pyrazol-4-yl)amino)-1H-pyrazolo[3,4-d]pyrimidin-3-yl)amino)nicotinamide], half-maximal inhibition (IC50) required 40.1 nM.
On the same count and under the same terms, the value for `Cc1ncc(C(=O)NCCN2CCC3(CCO3)CC2)cc1Nc1nn(C)c2nc(Nc3cnn(C)c3)ncc12` [Example 19, N-(2-(1-oxa-7-azaspiro[3.5]nonan-7-yl)ethyl)-6-methyl-5-((1-methyl-6-((1-methyl-1H-pyrazol-4-yl)amino)-1H-pyrazolo[3,4-d]pyrimidin-3-yl)amino)nicotinamide] was 56 nM.

Still in this assay, the particulars now being: A10 cells, 3 hours compound, 15 ng/mL PDGFbb for 10 minutes; read-out: PDGFR Cellular IC50.
With `Cc1ncc(NC(=O)CN2C[C@H](C)O[C@@H](C)C2)cc1Nc1nn(C)c2nc(Nc3cnn(C)c3)ncc12` (relative stereo) [Example 73, 2-(trans-2,6-dimethylmorpholino)-N-(6-methyl-5-((1-methyl-6-((1-methyl-1H-pyrazol-4-yl)amino)-1H-pyrazolo[3,4-d]pyrimidin-3-yl)amino)pyridin-3-yl)acetamide], the IC50 worked out at 5.3 nM.
The same measure, in the same setting: the same measure for `COC(=O)Cc1cccc(Nc2ncc3c(Nc4cc(C(=O)NCCN5CCCC5(C)C)cnc4C)nn(C)c3n2)c1` [Example 43]: 24 nM; for `COC(=O)C(C)(C)c1cccc(Nc2ncc3c(Nc4cc(C(=O)NCCN5CCCC5(C)C)cnc4C)nn(C)c3n2)c1` [Example 46]: 18.5 nM; for `Cc1ncc(NC(=O)CN2CCC[C@@H]2C)cc1Nc1nn(C)c2nc(Nc3cnn(C)c3)ncc12` [Example 71, (S)—N-(6-methyl-5-((1-methyl-6-((1-methyl-1H-pyrazol-4-yl)amino)-1H-pyrazolo[3,4-d]pyrimidin-3-yl)amino)pyridin-3-yl)-2-(2-methylpyrrolidin-1-yl)acetamide]: 1.7 nM.
Same read-out and setting: the same measure for `Cc1ncc(NC(=O)CN2CCC(F)(F)CC2)cc1Nc1nn(C)c2nc(Nc3cnn(C)c3)ncc12` [Example 72, 2-(4,4-difluoropiperidin-1-yl)-N-(6-methyl-5-((1-methyl-6-((1-methyl-1H-pyrazol-4-yl)amino)-1H-pyrazolo[3,4-d]pyrimidin-3-yl)amino)pyridin-3-yl)acetamide]: 3.5 nM.
Consider `Cc1ncc(NC(=O)CN2CCC3(CC3)C2)cc1Nc1nn(C)c2nc(Nc3cnn(C)c3)ncc12` [Example 74, N-(6-methyl-5-((1-methyl-6-((1-methyl-1H-pyrazol-4-yl)amino)-1H-pyrazolo[3,4-d]pyrimidin-3-yl)amino)pyridin-3-yl)-2-(5-azaspiro[2.4]heptan-5-yl)acetamide], for which the IC50 stood at 1.7 nM.
As for `Cc1ncc(NC(=O)CN2CCC(F)(F)C2)cc1Nc1nn(C)c2nc(Nc3cnn(C)c3)ncc12` [Example 75, 2-(3,3-difluoropyrrolidin-1-yl)-N-(6-methyl-5-((1-methyl-6-((1-methyl-1H-pyrazol-4-yl)amino)-1H-pyrazolo[3,4-d]pyrimidin-3-yl)amino)pyridin-3-yl)acetamide], the IC50 amounted to 4.9 nM.
The same measure, in the same setting: the same measure for `Cc1ncc(NC(=O)CN2CC(F)(F)C2)cc1Nc1nn(C)c2nc(Nc3cnn(C)c3)ncc12` [Example 76, 2-(3,3-difluoroazetidin-1-yl)-N-(6-methyl-5-((1-methyl-6-((1-methyl-1H-pyrazol-4-yl)amino)-1H-pyrazolo[3,4-d]pyrimidin-3-yl)amino)pyridin-3-yl)acetamide]: 13.1 nM; for `Cc1ncc(NC(=O)CN2C[C@@H](C)O[C@@H](C)C2)cc1Nc1nn(C)c2nc(Nc3cnn(C)c3)ncc12` [Example 78, 2-(cis-2,6-dimethylmorpholino)-N-(6-methyl-5-((1-methyl-6-((1-methyl-1H-pyrazol-4-yl)amino)-1H-pyrazolo[3,4-d]pyrimidin-3-yl)amino)pyridin-3-yl)acetamide]: 8.3 nM.
For `Cc1ncc(NC(=O)CN(CCO)C2CCCC2)cc1Nc1nn(C)c2nc(Nc3cnn(C)c3)ncc12` [Example 79, 2-(cyclopentyl(2-hydroxyethyl)amino)-N-(6-methyl-5-((1-methyl-6-((1-methyl-1H-pyrazol-4-yl)amino)-1H-pyrazolo[3,4-d]pyrimidin-3-yl)amino)pyridin-3-yl)acetamide], the IC50 was found to be 23.5 nM.
Turning to `Cc1ncc(NC(=O)CN(CCCO)C2CCCC2)cc1Nc1nn(C)c2nc(Nc3cnn(C)c3)ncc12` [Example 80, 2-(cyclopentyl(3-hydroxypropyl)amino)-N-(6-methyl-5-((1-methyl-6-((1-methyl-1H-pyrazol-4-yl)amino)-1H-pyrazolo[3,4-d]pyrimidin-3-yl)amino)pyridin-3-yl)acetamide], the IC50 was 16.6 nM.
Same read-out and setting: the same measure for `COCCn1cc(Nc2ncc3c(Nc4cc(NC(=O)CN5CCC56CCC6)cnc4C)nn(C)c3n2)cn1` [Example 123, N-(5-((6-((1-(2-methoxyethyl)-1H-pyrazol-4-yl)amino)-1-methyl-1H-pyrazolo[3,4-d]pyrimidin-3-yl)amino)-6-methylpyridin-3-yl)-2-(1-azaspiro[3.3]heptan-1-yl)acetamide]: 4.7 nM.
